# Experimental data reported in the supplement of paper PMC11451515.
# Tested on: P12-Ichikawa
# Assay: cell viability relative to DMSO control; higher = less cytotoxic
# Settings: 48 h
# In short: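 Leukemia cells (NOMO1 or SEM, 500 cells/well; P12-Ichikawa, 1000 cells/well) were seeded in 5 μl in 1536-well plates after at least four passages of adaptation to each medium. They received library compounds in DMSO by pin dosing, 11 threefold points from 47 μM to 0.79 nM. Luminescence with CellTiter-Glo One was read after 48 h at 37°C. Viability is stated per plate relative to DMSO wells, with cell-free wells as background.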
# [1] = HPLM + 10% dialyzed FBS, 0.000781 µM
# [2] = HPLM + 10% dialyzed FBS, 0.00234 µM
# [3] = HPLM + 10% dialyzed FBS, 0.00702 µM
# [4] = HPLM + 10% dialyzed FBS, 0.0211 µM
# [5] = HPLM + 10% dialyzed FBS, 0.0632 µM
# [6] = HPLM + 10% dialyzed FBS, 0.19 µM
# [7] = HPLM + 10% dialyzed FBS, 0.569 µM
# [8] = HPLM + 10% dialyzed FBS, 1.71 µM
# [9] = HPLM + 10% dialyzed FBS, 5.12 µM
# [10] = HPLM + 10% dialyzed FBS, 15.4 µM
# [11] = HPLM + 10% dialyzed FBS, 46.1 µM
# [12] = RPMI 5 mM glucose + 10% FBS, 0.000781 µM
# [13] = RPMI 5 mM glucose + 10% FBS, 0.00234 µM
# [14] = RPMI 5 mM glucose + 10% FBS, 0.00702 µM
# [15] = RPMI 5 mM glucose + 10% FBS, 0.0211 µM
# [16] = RPMI 5 mM glucose + 10% FBS, 0.0632 µM
# [17] = RPMI 5 mM glucose + 10% FBS, 0.19 µM
# [18] = RPMI 5 mM glucose + 10% FBS, 0.569 µM
# [19] = RPMI 5 mM glucose + 10% FBS, 1.71 µM
# [20] = RPMI 5 mM glucose + 10% FBS, 5.12 µM
# [21] = RPMI 5 mM glucose + 10% FBS, 15.4 µM
# [22] = RPMI 5 mM glucose + 10% FBS, 46.1 µM
# [23] = RPMI 5 mM glucose + 10% dialyzed FBS, 0.000781 µM
# [24] = RPMI 5 mM glucose + 10% dialyzed FBS, 0.00234 µM
# [25] = RPMI 5 mM glucose + 10% dialyzed FBS, 0.00702 µM
# [26] = RPMI 5 mM glucose + 10% dialyzed FBS, 0.0211 µM
# [27] = RPMI 5 mM glucose + 10% dialyzed FBS, 0.0632 µM
# [28] = RPMI 5 mM glucose + 10% dialyzed FBS, 0.19 µM
# [29] = RPMI 5 mM glucose + 10% dialyzed FBS, 0.569 µM
# [30] = RPMI 5 mM glucose + 10% dialyzed FBS, 1.71 µM
# [31] = RPMI 5 mM glucose + 10% dialyzed FBS, 5.12 µM
# [32] = RPMI 5 mM glucose + 10% dialyzed FBS, 15.4 µM
# [33] = RPMI 5 mM glucose + 10% dialyzed FBS, 46.1 µM
SMILES,cell viability [1] [%],cell viability [2] [%],cell viability [3] [%],cell viability [4] [%],cell viability [5] [%],cell viability [6] [%],cell viability [7] [%],cell viability [8] [%],cell viability [9] [%],cell viability [10] [%],cell viability [11] [%],cell viability [12] [%],cell viability [13] [%],cell viability [14] [%],cell viability [15] [%],cell viability [16] [%],cell viability [17] [%],cell viability [18] [%],cell viability [19] [%],cell viability [20] [%],cell viability [21] [%],cell viability [22] [%],cell viability [23] [%],cell viability [24] [%],cell viability [25] [%],cell viability [26] [%],cell viability [27] [%],cell viability [28] [%],cell viability [29] [%],cell viability [30] [%],cell viability [31] [%],cell viability [32] [%],cell viability [33] [%]
Cc1nc(-c2ccc(OCC(C)C)c(C#N)c2)sc1C(=O)O,114,124,122,117,119,117,112,116,119,106,92.7,–,–,–,–,–,–,–,–,–,–,–,–,–,–,–,–,–,–,–,–,–,–
CC(C)(N)c1ccc(-c2nc3ccccc3nc2-c2ccccc2)cc1,110,114,108,65.8,23.2,10.3,7.18,5.6,5.46,4.51,4.37,96.3,120,109,111,84.4,18.8,10.2,6.88,6.89,4.41,3.11,108,117,111,114,68.8,22.3,13.9,8.23,7.24,7.26,4.8
CCCCc1ccc2[nH]c(NC(=O)OC)nc2c1,104,106,105,101,85.9,22.9,18.4,27.1,13.8,16.2,11,99.7,112,101,106,92.6,17.6,16.8,26.7,24.1,22.2,16.5,92.4,98.4,103,102,97.5,31,25.7,37.7,27.9,29.3,23.1
CCNC(=O)CCC/C=C\C[C@@H]1[C@@H](/C=C/C(O)CCc2ccccc2)[C@@H](O)C[C@@H]1O (some centres undefined),117,121,111,111,116,114,111,114,105,106,99.7,109,125,109,130,122,109,111,112,109,103,95,121,120,127,111,110,105,116,106,111,97.3,86.6
CN1C(=O)/C(=C(NC2=CC=C(I)C=C2F)\C3=C1\N=C/N(C[C@@H](O)CO)C3=O)F,86.5,82.2,87.2,89.6,81.1,82.8,75.4,80.3,74.8,71.3,62.9,78.2,74.9,83.6,73.8,71.6,71.3,72.1,70.4,68,68.9,40.5,81.1,82.2,85.6,86.7,77.7,81.9,76.2,80.1,78,65.2,39.2
CO[C@@H](C(=O)N1Cc2[nH]nc(NC(=O)c3ccc(N4CCN(C)CC4)cc3)c2C1)c1ccccc1,89.1,93.6,93,95.9,80,35.4,15,20.3,23.2,25,50.8,90,87.3,84.9,89,75.9,30.3,19.9,28.9,28.3,26.1,42.3,87.1,95.8,95.9,95.5,82.8,34.5,28.4,37.9,39.4,42.8,54.8
CC(C)C1CCC(C(=O)N[C@H](Cc2ccccc2)C(=O)O)CC1 (some centres undefined),100,95.9,98.9,103,95,99.5,92.5,88.2,93.6,87.4,86.9,94.3,97.8,91.9,96.9,98.2,93.7,84.4,88.3,86.3,83.5,87.1,91.1,95.3,88.2,92.3,90.9,89.7,77.7,86.9,89.7,79.9,84.6
CN1C(=O)c2sccc2N(C)c2nc(Nc3ccc([S+](N)(=O)[O-])cc3)ncc21,91.5,94,95.1,102,101,96.2,92.6,75.7,11.4,5.78,5.18,96.2,96,98.3,93.4,99.7,99.7,90,73.6,17.2,13.1,6.79,98.2,103,104,99.4,98.2,88.9,95.8,64.9,23.4,14.5,9.34
CCCN[C@H]1CCc2nc(N)sc2C1,92.8,104,98,98.4,101,107,101,110,103,104,107,94.3,90.5,107,104,107,110,107,111,114,114,120,85.6,95.1,90.4,93.6,96,101,96.1,93.6,94.9,96.9,106
COc1c(Cl)cc2c([nH]c3cnccc32)c1NC(=O)c1cccnc1C,103,99.3,102,106,107,109,99,99.1,94.9,94.7,93.1,107,105,107,108,112,108,96.1,105,110,105,96.9,102,110,104,96.9,106,106,97.7,94.1,95.4,95.6,82.8
COc1cc(C(=O)NC2CCN(C)CC2)ccc1Nc1ncc2c(n1)N(C1CCCC1)CCC(=O)N2C(C)C,104,102,103,110,109,110,85,109,79.2,26.3,4.5,107,103,95.1,112,108,116,89.6,114,73.4,42.7,5.67,98.1,104,111,110,111,106,92.3,107,71.2,54.1,6
CCC(CCCC)COC(=O)C(\C#N)=C(\c1ccccc1)c2ccccc2 (centres undefined),95.6,100,102,99.3,106,108,112,107,113,107,99.3,89.8,95.7,95.2,96.3,110,104,106,99.2,95.2,102,94.5,87.1,84.2,97.6,98.5,98.8,97.2,101,99.5,97.3,99.1,95.9
Cc1cc(Nc2cc(N3CCN(C)CC3)nc(/C=C/c3ccccc3)n2)n[nH]1,105,111,115,120,118,122,116,12.1,5.08,4.47,5.23,113,108,113,117,121,125,119,41.5,8.43,4.4,4.88,107,114,112,112,121,130,126,37.4,11.6,5.07,5.54
Clc2cccc(Cl)c2\N=C1/NCCN1,109,115,71,123,116,123,120,120,116,122,121,109,120,73.8,121,127,130,137,126,135,126,123,95.8,115,80.2,113,115,121,120,120,112,124,124
CC(C)(N)C(=O)N[C@H](COCc1ccccc1)C(=O)N1CCC2(CC1)CN([S+](C)(=O)[O-])c1ccccc12,–,–,–,–,–,–,–,–,–,–,–,–,–,–,–,–,–,–,–,–,–,–,124,122,141,126,125,124,123,114,109,91.8,20.3
C[C@]12CC[C@H]3[C@@H](CC(=C)\C4=C\C(=O)\C=C/[C@]34C)[C@@H]1CCC2=O,105,107,105,107,107,101,104,103,98,99,79.9,96.3,110,105,102,108,96.2,102,107,101,98,63.7,96.7,107,99.6,101,99.1,95.2,88.5,103,102,94.5,57.4
